One block for each compound: values may come before it.
Tests used:
PICTAIRE = test: Peptide kinase assay with […]; assay type: biochemical; details: 50 μM peptide, 2 mUnits kinase, 30 min, Fig. 1d
Method: (§1) Specific activity (pmol/min) was determined for all protein kinases by incubating known amounts of kinase (0.01-1 μg) with the generic substrate myelin basic protein (MBP, 0.3 mg/ml final) in kinase buffer (25 mM MOPS pH 7.5, 0.05 % (v/v) Brij-35, 0.25 mM EDTA, 5 % (v/v) glycerol) plus 10 mM MgCl2, and 100 μM [γ-32P] ATP (approx 0.5 × 10^6 CPM/nmol) as previously described. Peptide kinase assays were performed with 2mUnits of each kinase as above, except MBP was replaced with the peptide at the concentration given in figure legends. One unit of activity of each protein kinase was calculated as 1 nmole of phosphate transferred/min.
Fig. 1 In vitro analysis of primary sequence determinants for p35/CDK5 and p25/CDK5. a The contribution of C-terminal Arg/Lys residues to recognition and phosphorylation by each CDK5 complex was assessed by incubating the peptides at the indicated concentrations with 2 m units of each CDK5 complex for 20 mins and measuring phosphate transferred to each peptide. b Each CDK5 complex was incubated for 20 mins with 100 μM of the indicated peptides representing the primary sequence of the 4 classes of CDK5 substrates. The phosphorylated residue is underlined. c To assess the contribution of specific residues ±2 positions from the target residue a further 4 peptides (at 100 μM) were incubated with 2mUnits of each CDK5 complex for 30 mins. […]

p25/CDK5 [1] = target: T1, p25/CDK5 (Homo sapiens, UniProt Q00535+Q15078); test: Peptide kinase assay with p25/CDK5; assay type: biochemical; details: 100 μM peptide; for Rate of phosphorylation compared with related peptides, in words: 1.0 versus 1.1 and 1.2, 1.4 versus 1.3; for Phosphorylation of substrate class peptides, in words: 20 min, Fig. 1b
T1 construct: purchased Millipore UK Ltd, Herts, UK
Method: as §1
(§2) Fig. 1 In vitro analysis of primary sequence determinants for p35/CDK5 and p25/CDK5. a The contribution of C-terminal Arg/Lys residues to recognition and phosphorylation by each CDK5 complex was assessed by incubating the peptides at the indicated concentrations with 2 m units of each CDK5 complex for 20 mins and measuring phosphate transferred to each peptide. b Each CDK5 complex was incubated for 20 mins with 100 μM of the indicated peptides representing the primary sequence of the 4 classes of CDK5 substrates. The phosphorylated residue is underlined. c To assess the contribution of specific residues ±2 positions from the target residue a further 4 peptides (at 100 μM) were incubated with 2mUnits of each CDK5 complex for 30 mins. The residue changed from the parent sequence (peptide 1.0) is in italics in each case. *indicates p < 0.05 compared to peptide 1.0. d The rate of phosphorylation of the indicated peptides by several members of the CMGC family of kinases was compared by incubating each peptide (at 50 μM) with 2 m units (as determined against the generic substrate MBP) of each kinase for 30 mins and phosphate transfer measured. In all figures the data is presented as the average of at least two different experiments performed in duplicate ± the SEM, and is given as total picomoles transferred during the assay (a) or pmoles transferred/min (b-d)

p35/CDK5 [2] = target: T2, p35/CDK5 (Homo sapiens, UniProt Q00535+Q15078); test: Peptide kinase assay with p35/CDK5; assay type: biochemical; details: 100 μM peptide; for Rate of phosphorylation compared with related peptides, in words: 1.0 versus 1.1 and 1.2, 1.4 versus 1.3; for Phosphorylation of substrate class peptides, in words: 20 min, Fig. 1b
T2 construct: purchased Millipore UK Ltd, Herts, UK
Method: as §1, §2

MCF-7 = MCF-7 breast cancer cell line; cited from earlier work
Description: (§3) Similarly, CDK5 levels decrease in gastric cancer and its nuclear accumulation suppresses gastric tumorigenesis.

MDA-MB321 = MDA-MB321 breast cancer cell line; cited from earlier work
Description: as §3

[3] = test system: CMGC protein kinase family; test: Peptide phosphorylation by several members of the CMGC kinase family (selectivity); assay type: biochemical; details: 50 μM peptide, 2 mUnits of each kinase, 30 min, Fig. 1d
Method: as §1, §2

p25/CDK5 [4] = target: T1, p25/CDK5; assay type: biochemical; details: inhibitor 10 μM, 30 min pre-incubation, GST-tau 0.5 μM, 2 mUnits kinase, Fig. 2b
Method: (§4) Recombinant protein substrates were incubated with 2mUnits of each CMGC kinase as for MBP above for the times and at the concentrations given in figure legends. Reactions were terminated by the addition of SDS-PAGE loading buffer and heating to 70 °C for 15 mins. Aliquots were subjected to SDS-PAGE, stained with Coomassie Brilliant Blue (CBR-250), the gels were dried and radiolabeled bands visualized by autoradiography. Quantification of nmoles of phosphate incorporated was obtained by excising the stained protein band from the gel and counting in scintillation fluid.
(§5) Recombinant protein substrates (0.5 μM final concentration) were incubated with 2mUnits of each CDK5 complex and MgCl2 and [γ-32P] ATP (approx 0.5x10^6 CPM/nmole) for 30 mins. Reactions were terminated by the addition of SDS-PAGE loading buffer and heating to 70 °C. […] Data is representative of at least three different experiments

p35/CDK5 [5] = target: T2, p35/CDK5; assay type: biochemical; details: inhibitor 10 μM, 30 min pre-incubation, GST-tau 0.5 μM, 2 mUnits kinase, Fig. 2b
Method: as §4, §5

[6] = test system: CDK5 substrate phosphorylation in primary cortical neurons; test: Immunohistochemistry of CDK5 substrate phosphorylation in paraffin-embedded primary neurons; assay type: cell-based, rat; details: 10 μM inhibitor, 3 h, formaldehyde fixed, Fig. 3b
Method: Sections of formalin-fixed, paraffin embedded tissue were cut at a thickness of 4 μm, collected onto Polysine-coated microscope slides (VWR International) and dried overnight at 37 °C. Sections were dewaxed in Histoclear, rinsed in alcohol and endogenous peroxidase was quenched with 0.5 % hydrogen peroxide (100 volumes) in methanol at room temperature for 35 min. After washing in water, antigen retrieval was performed by boiling sections in 10 mM citrate buffer, pH 6.0 for 15 min in a microwave. After cooling, sections were rinsed in PBS and blocked with 5 % normal serum in PBS containing 5 % (v/v) avidin (Vector Laboratories, Peterborough, UK) for 30 min at room temperature. Sections were washed in PBS and incubated with primary antibody in 5 % normal serum in PBS containing 5 % (v/v) biotin at 4 °C overnight. After washing in PBS, sections were then incubated with biotinylated secondary antibody (1:250) (Vector Laboratories) for 30 min at room temperature, followed by streptavidin complexed with biotinylated peroxidase (Vectastain ABC kit; Vector Laboratories) at room temperature for 30 min. […] Cell nuclei were counterstained with haematoxylin (Sigma), dehydrated through graded alcohols, cleared in HistoClear and mounted in DPX. Images were taken using a Spot Insight QE digital camera or slides were digitally scanned (x40) using an Aperio ScanScope XT.

[7] = test system: CDK5 substrate phosphorylation in primary cortical neurons; test: Immunofluorescence of CDK5 substrate phosphorylation in primary cortical neurons; assay type: cell-based, rat; details: 10 μM inhibitor, 3 h, neurons 6 days in vitro, Fig. 3a
Method: Embryonic primary cortical neurons were isolated from Sprague–Dawley rats at day 18 gestation. Briefly, following dissection, cortex was digested in 0.25 % trypsin in Hank’s balanced salt solution at 37 °C for 20 min. Cells were manually dissociated by trituration using a fire-polished Pasteur pipette and plated onto 0.01 % poly-l-lysine-coated coverslips at a density of 2–5 × 10^6 cells per 6 cm well, then incubated at 37 °C with 5 % CO2 in Neurobasal medium (Gibco) containing 2 % (vol/vol) B27 serum replacement (Invitrogen), penicillin (Sigma; 100 units/ml), streptomycin (Sigma; 100 μg/ml), and 1 % (vol/vol) L-glutamine (Sigma). HeLa and tumour cell lines were maintained in DMEM supplemented with 4.5 g/L glucose, 10 % (vol/vol) FCS, 1 % (vol/vol) penicillin (100 units/ml)/streptomycin (100 μg/ml) at 37 °C in 5 % CO2. […]
Fig. 3 Imaging of CDK5 substrate phosphorylaiton in primary cells. […] Phosphospecific antibodies were detected by Cy-3 bound 2ry antibodies (red) and nuclei were counter-stained with the DNA-binding dye DAPI (blue). […]

p35/CDK5 [8] = target: T2, p35/CDK5; test: Phosphorylation kinetics of recombinant protein substrates by p35/Cdk5; assay type: biochemical; details: initial rate, varying substrate concentrations, Mg[γ-32P]ATP, 10 min, 30 °C, Lineweaver-Burk, ND = not determinable, not phosphorylated to a significant level; for Vmax: at least two experiments in duplicate
Method: as §4

p25/CDK5 [9] = target: T1, p25/CDK5; test: Phosphorylation kinetics of recombinant protein substrates by p25/Cdk5; assay type: biochemical; details: initial rate, varying substrate concentrations, Mg[γ-32P]ATP, 10 min, 30 °C, Lineweaver-Burk, ND = not determinable, not phosphorylated to a significant level; for Vmax: at least two experiments in duplicate
Method: as §4

CDK5 = test system: CDK5; parameters: method as in PMID 19075597; details: application of carboplatin; cited from earlier work

T1 sequence (Q00535 whole entry): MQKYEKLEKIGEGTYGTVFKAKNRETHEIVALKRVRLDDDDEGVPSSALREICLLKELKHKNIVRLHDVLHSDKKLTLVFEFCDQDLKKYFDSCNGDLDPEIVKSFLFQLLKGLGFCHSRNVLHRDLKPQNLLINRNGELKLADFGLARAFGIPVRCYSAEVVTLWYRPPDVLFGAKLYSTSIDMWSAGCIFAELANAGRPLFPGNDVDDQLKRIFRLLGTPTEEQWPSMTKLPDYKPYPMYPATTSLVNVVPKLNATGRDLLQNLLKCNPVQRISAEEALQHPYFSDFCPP
T1 sequence (Q15078 99-307 partner limits assumed): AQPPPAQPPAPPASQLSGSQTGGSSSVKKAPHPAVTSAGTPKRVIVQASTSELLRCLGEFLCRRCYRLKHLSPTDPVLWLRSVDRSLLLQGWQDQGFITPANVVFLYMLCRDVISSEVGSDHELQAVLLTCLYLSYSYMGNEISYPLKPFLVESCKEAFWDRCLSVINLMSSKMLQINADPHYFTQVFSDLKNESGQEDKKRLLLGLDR
T2 sequence (Q00535 whole entry): as the sequence (Q00535 whole entry) above
T2 sequence (Q15078 whole entry partner): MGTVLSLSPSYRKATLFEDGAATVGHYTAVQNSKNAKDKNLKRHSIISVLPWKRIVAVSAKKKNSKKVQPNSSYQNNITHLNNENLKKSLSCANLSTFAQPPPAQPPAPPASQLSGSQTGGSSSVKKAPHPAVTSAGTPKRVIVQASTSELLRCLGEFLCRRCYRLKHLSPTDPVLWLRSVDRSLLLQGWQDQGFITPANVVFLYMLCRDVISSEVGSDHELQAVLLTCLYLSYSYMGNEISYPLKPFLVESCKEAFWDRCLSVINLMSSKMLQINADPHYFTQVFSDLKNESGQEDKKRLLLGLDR

Phosphorylation by PICTAIRE compared with CDK5, in words (PICTAIRE): to a greater extent than CDK5
Reduction of rate of phosphorylation compared to peptide 1.0 and 1.1 (p25/CDK5 [1]; 2 mUnits, 30 min, Fig. 1c): > 90%
Reduction of rate of phosphorylation compared to peptide 1.0 and 1.1 (p35/CDK5 [2]; 2 mUnits, 30 min, Fig. 1c): > 90%
Compound: KKASAPKSPPKPRS [peptide 1.3]

Compound: CC[C@H](CO)Nc1nc(NCc2ccccc2)c2ncn(C(C)C)c2n1 [roscovitine]
Effect on proliferation (MCF-7): enhances the proliferation
Effect on proliferation (MDA-MB321): enhances the proliferation

Selectivity of peptide substrate among CMGC kinases, in words [3]: CDK5 is the most effective kinase
Compound: KKASAPKSPARPRS [peptide 1.1]

Compound: CC(C)[C@H](CO)Nc1nc(Nc2cccc(Cl)c2)c2ncn(C(C)C)c2n1 [purvalanol A]
Effect of CDK inhibitor on tau phosphorylation in vitro (p25/CDK5 [4]): completely blocked
Effect of CDK inhibitor on tau phosphorylation in vitro (p35/CDK5 [5]): completely blocked
Intensity of staining and number of cells stained for phospho-Ser522 of CRMP2 (immunohistochemistry) [6]: reduced
Tau phosphorylation at Ser235 (immunohistochemistry) [6]: not significantly affected
Tau phosphorylation at Thr205 (immunohistochemistry) [6]: not significantly affected
CRMP2 phosphorylation at Ser522 (immunofluorescence) [7]: reduces
CRMP4 phosphorylation at Ser522 (immunofluorescence) [7]: does not alter

Selectivity of peptide substrate among CMGC kinases, in words [3]: CDK5 is the most effective kinase
Compound: KKASAPVSPRKPRS [peptide 1.2]

Selectivity of peptide substrate among CMGC kinases, in words [3]: highly selective for CDK5
Phosphorylation by PICTAIRE relative to a matched amount of MBP kinase activity of CDK5 (PICTAIRE): < 80%
Rate of phosphorylation compared with related peptides, in words (p25/CDK5 [1]; 2 mUnits, 30 min, Fig. 1c): twice the rate
Phosphorylation of substrate class peptides, in words (p25/CDK5 [1]): much better substrates
Rate of phosphorylation compared with related peptides, in words (p35/CDK5 [2]; 2 mUnits, 30 min, Fig. 1c): twice the rate
Phosphorylation of substrate class peptides, in words (p35/CDK5 [2]): much better substrates
Compound: KKASAPKSPRKPRS [peptide 1.0]

Compound: CRMP1: recombinant collapsin response mediator protein 1, proposed CDK5 substrate
Km (p35/CDK5 [8]): 1.26 µM
Vmax (p35/CDK5 [8]): 0.735 pmol/min
Km (p25/CDK5 [9]): 1.46 µM
Vmax (p25/CDK5 [9]): 0.191 pmol/min

Phosphorylation of substrate class peptides, in words (p25/CDK5 [1]): not phosphorylated
Phosphorylation of substrate class peptides, in words (p35/CDK5 [2]): not phosphorylated
Compound: KKPKSRRSPPSIPT [Class 3]

Rate of phosphorylation compared with related peptides, in words (p25/CDK5 [1]; 2 mUnits, 30 min, Fig. 1c): did not restore phosphorylation
Rate of phosphorylation compared with related peptides, in words (p35/CDK5 [2]; 2 mUnits, 30 min, Fig. 1c): did not restore phosphorylation
Compound: KKASAAKSPPKPRS [peptide 1.4]

Compound: N.N.O=C([O-])C1(C(=O)[O-])CCC1.[Pt+2] [carboplatin]
Effect on CDK5 activity (CDK5): induces CDK5 activation

Phosphorylation of substrate class peptides, in words (p25/CDK5 [1]): not phosphorylated
Phosphorylation of substrate class peptides, in words (p35/CDK5 [2]): not phosphorylated
Compound: KKENNVLSPLPSQA [Class 4]

Compound: CRMP4: recombinant collapsin response mediator protein 4, proposed CDK5 substrate
Km (p35/CDK5 [8]): 0.401 µM
Vmax (p35/CDK5 [8]): 0.665 pmol/min
Km (p25/CDK5 [9]): 0.252 µM
Vmax (p25/CDK5 [9]): 0.155 pmol/min

Phosphorylation of substrate class peptides, in words (p25/CDK5 [1]): relatively poor substrate
Phosphorylation of substrate class peptides, in words (p35/CDK5 [2]): relatively poor substrate
Compound: KKASAPVSPPRDRK [Class 2]

Source: article PMC4640224, “Phosphorylation of a splice variant of collapsin response mediator protein 2 in the nucleus of tumour cells links cyclin dependent kinase-5 to oncogenesis” (BMC Cancer, 2015)
